Assay results taken from US8222284B2, “Stable formulations of thiadiazole derivative” (Eli Lilly and Company, priority 2007, dated 2012).

Tests used:
Type in all cases: physicochemical
[1] = Enantiomeric (chiral) stability of the compound in buffer solutions, chiral HPLC assay
Procedure: (§1) Stability for N-{4-(2,2-dimethyl-propionyl)-(5R)-5-[(2-ethylamino-ethanesulfonylamino)-methyl]-5-phenyl-4.5-dihydro-[1,3,4]thiadiazol-2-yl}-2,2-dimethyl-propionamide (the compound) is assessed at 0.1 mg/mL in various buffers adjusted from pH 2 through 8 with various pH adjusting agents (e.g. 0.1 and 1 N HCl; 0.1, 1, and 5 N NaOH) and at different storage conditions (e.g. 5° C., 25° C., and 40° C. at 75% relative humidity). Hereinafter, the 40° C. at 75% relative humidity storage condition will be referred to as 40° C. These buffers include 10 mM and 50 mM tartrate (40° C.), 10 mM phosphate (25 and 40° C.), 50 mM phosphate (40° C.), and 10 mM citrate (25 and 40° C. Additional solution stability studies include 10 mM citrate (pH 8; 5° C., 25° C., and 40° C.) and 10 mM NaCl, 10 mM sodium sulfate, 10 mM mesylate, 10 mM tartrate, 10 mM phosphate, and 10 mM citrate (pH 8, 40° C). Lyophilized stability studies for N-{4-(2,2-dimethyl-propionyl)-(5R)-5-[(2-ethylamino-ethanesulfonylamino)-methyl]-5-phenyl-4,5-dihydro-[1,3,4]thiadiazol-2-yl}- 2-dimethyl-propionamide involve solutions containing 10 mM tartrate buffer at pH 3 which are lyophilized and subjected to storage at 5° C., 25° C., and 40 ° C. for 1, 3, and 6 months. Finally, the enantiomeric stability for N-{4-(2,2-dimethyl-propionyl)-(5R)-5-[(2-ethylamino-ethanesulfonylamino-methyl]-5-phenyl-4,5-dihydro-[1,3,4]thiadiazol-2-yl}-2,2-dimethyl-propionamide is assessed when dissolved in various organic solvents and aqueous/solvent mixtures, including methanol, ethanol, acetonitrile, acetone, ethyl acetate, and 50% ethanol/50% water (all at 25° C. and 40° C.) and in 1-octanol (25° C.).
(§2) The enantiomeric stability is measured with a chiral HPLC assay employing polar ionic separation conditions. Those conditions include Column: Chirobiotic T, 150×4.6 mm; Detector UV, 290 nm; Flow: 0.225-0.35 mL/min., adjust to optimize chiral separation; injection: 2 μL-10 μL; Column Temperature: 45° C.; Mobile Phase: 0.01% TEA, 1.0% HOAc, 1.0% water (DIW) in methanol. Enantioselectivity is very sensitive to mobile phase composition, specifically the acid:base ratio. For this reason, the TEA and HOAc additives are accurately measured and then delivered by pipette into the mobile phase while stirring.

[2] = Lyophilized stability study (10 mM tartrate buffer pH 3, lyophilized and stored), chiral conversion
Procedure: as §1, §2

[3] = Enantiomeric stability when dissolved in organic solvents and aqueous/solvent mixtures
Procedure: as §1
The enantiomeric stability is measured with a chiral HPLC assay employing polar ionic separation conditions. […] For this reason, the TEA and HOAc additives are accurately measured and then delivered by pipette into the mobile phase while stirring.

- chiral conversion of the compound ([1]; 10 mM citrate buffer, pH 2.1, at least 96 hours, 40° C.): no chiral conversion
- chiral conversion of the compound ([1]; 10 mM citrate buffer, pH 2.1, at least 120 hours, 25° C.): no chiral conversion
- chiral conversion of the compound ([1]; 10 mM citrate buffer, pH 3.3, at least 96 hours, 40° C.): no chiral conversion
- chiral conversion of the compound ([1]; 10 mM citrate buffer, pH 3.3, at least 120 hours, 25° C.): no chiral conversion
- chiral conversion of the compound ([1]; 10 mM citrate buffer, pH 4.2, at least 96 hours, 40° C.): no chiral conversion
- chiral conversion of the compound ([1]; 10 mM citrate buffer, pH 4.2, at least 120 hours, 25° C.): no chiral conversion
- % of the compound remains ([1]; 10 mM citrate buffer, pH 8.4, 24 hours, 25° C.): 95.8%
- % of the compound remains ([1]; 10 mM citrate buffer, pH 8.4, 120 hours, 5° C.): 99.3%
- chiral conversion of the compound ([1]; 10 mM sodium phosphate buffer, pH 2.3, at least 120 hours, 25° C.): no chiral conversion
- chiral conversion of the compound ([1]; 10 mM sodium phosphate buffer, pH 2.3, at least 120 hours, 40° C.): no chiral conversion
- chiral conversion of the compound ([1]; 10 mM sodium phosphate buffer, pH 3.4, at least 120 hours, 25° C.): no chiral conversion
- chiral conversion of the compound ([1]; 10 mM sodium phosphate buffer, pH 3.4, at least 120 hours, 40° C.): no chiral conversion
- chiral conversion of the compound ([1]; 10 mM sodium phosphate buffer, pH 5.4, at least 120 hours, 25° C.): no chiral conversion
- chiral conversion of the compound ([1]; 10 mM sodium phosphate buffer, pH 5.4, at least 120 hours, 40° C.): no chiral conversion
- chiral conversion of the compound ([1]; 10 mM tartrate buffer, pH 2.1, at least 96 hours, 40° C., 0.1 mg/mL): no chiral conversion
- chiral conversion of the compound ([1]; 10 mM tartrate buffer, pH 3.1, at least 96 hours, 40° C., 0.1 mg/mL): no chiral conversion
- chiral conversion of the compound ([1]; 10 mM tartrate buffer, pH 4,1, at least 96 hours, 40° C., 0.1 mg/mL): no chiral conversion
- % of the compound remains ([1]; 10 mM tartrate buffer, pH 6.2, 96 hours, 40° C.): 97.5%
- % of the compound remains ([1]; 10 mM tartrate buffer, pH 8.7, 96 hours, 40° C.): 60.3%
- chiral conversion of the compound ([1]; 50 mM phosphate buffer, pH 2.2, at least 96 hours, 40° C.): no chiral conversion
- chiral conversion of the compound ([1]; 50 mM phosphate buffer, pH 3.3, at least 96 hours, 40° C.): no chiral conversion
- chiral conversion of the compound ([1]; 50 mM phosphate buffer, pH 5.0, at least 96 hours, 40° C.): no chiral conversion
- chiral conversion of the compound ([1]; 50 mM tartrate buffer, pH 2.0, at least 120 hours, 40° C., 0.1 mg/mL): no chiral conversion
- chiral conversion of the compound ([1]; 50 mM tartrate buffer, pH 2.9, at least 120 hours, 40° C., 0.1 mg/mL): no chiral conversion
- chiral conversion of the compound ([1]; 50 mM tartrate buffer, pH 3.9, at least 120 hours, 40° C., 0.1 mg/mL): no chiral conversion
- % of the compound remains ([1]; citrate buffer, pH 6.2, 96 hours, 40° C.): 98.2%
- % of the compound remains ([1]; citrate buffer, pH 6.2, 120 hours, 25° C.): 99.9%
- chiral conversion of the compound ([2]; lyophilized formulation pH 3.0, 1 month, 5° C.): no chiral conversion
- chiral conversion of the compound ([2]; lyophilized formulation pH 3.0, 1 month, 25° C.): no chiral conversion
- chiral conversion of the compound ([2]; lyophilized formulation pH 3.0, 1 month, 40° C. (75% relative humidity)): no chiral conversion
- chiral conversion of the compound ([2]; lyophilized formulation pH 3.0, 3 months, 5° C.): no chiral conversion
- chiral conversion of the compound ([2]; lyophilized formulation pH 3.0, 3 months, 25° C.): no chiral conversion
- chiral conversion of the compound ([2]; lyophilized formulation pH 3.0, 3 months, 40° C. (75% relative humidity)): no chiral conversion
- chiral conversion of the compound ([2]; lyophilized formulation pH 3.0, 6 months, 5° C.): no chiral conversion
- chiral conversion of the compound ([2]; lyophilized formulation pH 3.0, 6 months, 25° C.): no chiral conversion
- chiral conversion of the compound ([2]; lyophilized formulation pH 3.0, 6 months, 40° C. (75% relative humidity)): no chiral conversion
- stability / conversion to the S enantiomeric form, compared with the other solvents tested ([3]; in 50% ethanol/50% water (25° C. and 40° C.)): less stable
- stability / conversion to the S enantiomeric form, compared with the other solvents tested ([3]; in acetonitrile (25° C. and 40° C.)): less stable
- stability / conversion to the S enantiomeric form, compared with the other solvents tested ([3]; in ethyl acetate (25° C. and 40° C.)): less stable
Structure (SMILES): CCNCCS(=O)(=O)NC[C@@]1(c2ccccc2)SC(NC(=O)C(C)(C)C)=NN1C(=O)C(C)(C)C [the compound, N-{4-(2,2-dimethyl-propionyl)-(5R)-5-[(2-ethylamino-ethanesulfonylamino)-methyl]-5-phenyl-4,5-dihydro-[1,3,4]thiadiazol-2-yl}-2,2-dimethyl-propionamide]
